Columns and labels:
Type in all cases: cell-based
[1] = system: EGFR Del19/C797S (H1975-clone #23); assay: EGFR degradation HTRF assay, H1975-clone #23 DC cells; settings: 16h treatment; for H1975 #23 DC Dmax (%): maximum percentage of degradation; for DC50: H1975 #23 DC, read-out: H1975 #23 DC DC50
Method: H1975-clone #28(Del19/T790M/C797S) and H1975-clone #23(Del19/C797S). EGFR-Del19/T790M/C797S and EGFR-Del19/C797S were stably expressed in H1975 cell lines by lentivirus-mediated over-expression, respectively. The EGFR over-expressed cells then underwent gene knockout, in which the EGFR targeting sgRNA was designed to only target the endogenous EGFR copies and preserve the exogenous EGFR copies. Followed by the gene knockout, the edited H1975 cells were seeded in 96 well plates at the concentration of 1 cell/well, cultured for about 2 weeks to allow single clones formation. The formed clones were screened by DNA sequencing and whole exon sequencing analysis for the desired edition. H1975-clone #28 and H1975-clone #23 were finally confirmed as homozygous Del19/T790M/C797S EGFR and Del19/C797S EGFR clones, respectively.
BaF3 WT(wild type), BaF3-LTC(L858R/T790M/C797S) and BaF3-DTC(Del19/T790M/C797S) cells are treated with compounds diluted in 0.2% DMSO cell culture medium and incubate for 16h, 37° C., 5% CO2, H1975-#36, H1975-#28, H1975-#23 and HCC827 cells are treated with compounds diluted in 0.2% DMSO cell culture medium on day 2, incubate for 16h, 37° C., 5% CO2.the final concentriation of compounds in all assay is start with 10 uM, 5-fold dilution, total 8 doses were included.
After 16h treatment, add HTRF lysis buffer to each well; seal the plate and incubate 1 hour at room temperature on a plate shaker; Once the cells are lysed, 16 μL of cell lysate are transferred to a PE 384-well HTRF detection plate; 4 μL of pre-mixed HTRF antibodies are added to each well; Cover the plate with a plate sealer, spin 1000 rpm for 1 min, Incubate overnight at room temperature; Read on BMG PheraStar with HTRF protocol (337 nm-665 nm-620 nm).
The inhibition (degradation) percentage of the compound was calculated by the following equation: Inhibition percentage of Compound=100-100×(Signal-low control)/(High control-low control), wherein signal=each test compound group
High control=Cell group with added DMSO and without compound, indicating microplate readings without EGFR degradation;
Dmax is the maximum percentage of inhibition (degradation).
The IC50 (DC50) value of a compound can be obtained by fitting the following equation
Y=Bottom+(TOP−Bottom)/(1+((IC50/X)^hillslope))
Wherein, X and Y are known values, and IC50, Hillslope, Top and Bottom are the parameters obtained by fitting with software. Y is the inhibition percentage (calculated from the equation), X is the concentration of the compound; IC50 is the concentration of the compound when the 50% inhibition is reached. The smaller the IC50 value is, the stronger the inhibitory ability of the compound is. Vice versa, the higher the IC50 value is, the weaker the inhibitory ability of the compound is; Hillslope represents the slope of the fitted curve, generally around 1*; Bottom represents the minimum value of the curve obtained by data fitting, which is generally 0%±20%; Top represents the maximum value of the curve obtained by data fitting, which is generally 100%±20%. The experimental data were fitted by calculating and analyzing with Dotmatics data analysis software.

[2] = target: T1, EGFR L858R/C797S (BaF3 LC cells) (Homo sapiens, UniProt P00533, C797S/L858R); assay: EGFR degradation HTRF assay, BaF3 LC cells; settings: BaF3 LC, 16h treatment; for DC50: read-out: BaF3 LC DC50
T1 construct: expressed in transfected cells; host or cells: BaF3

[3] = system: EGFR Del19/T790M/C797S (H1975-clone #28); assay: EGFR degradation HTRF assay, H1975-clone #28 DTC cells; settings: H1975 # 28 DTC cells
Method in brief: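 Cells were dosed on day 2 with an 8-point, 5-fold dilution series starting at 10 uM final and incubated 16h at 37° C. After lysis for 1 hour, HTRF antibodies were added overnight at room temperature and the plate was read at 665/620 nm. Degradation was normalised to DMSO wells and fitted for DC50 and Dmax.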

[4] = system: EGFR Del19/T790M/C797S (BaF3-DTC cells); assay: EGFR degradation HTRF assay, BaF3-DTC cells; settings: 16h treatment; for DTC Dmax (%): maximum percentage of degradation; for DC50: read-out: DTC DC50
Method in brief: (§1)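 BaF3 (WT, Del19/T790M/C797S) and HCC827 cells exposed 16 h at 37 °C, 5% CO2 to compounds in 0.2% DMSO medium, 8 doses from 10 uM top, 5-fold steps. Lysates read by HTRF (665/620 nm); degradation % vs DMSO control, DC50 from four-parameter fit, Dmax as maximal degradation.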

[5] = target: T2, EGFR L858R/T790M/C797S (BaF3-LTC cells) (Homo sapiens, UniProt P00533, C797S/L858R/T790M); assay: EGFR degradation HTRF assay, BaF3-LTC cells; settings: BaF3-LTC, 16h treatment; for Dmax: maximum percentage of degradation, read-out: LTC Dmax (%); for DC50: read-out: LTC DC50
T2 construct: expressed in transfected cells; host or cells: BaF3
Method in brief: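 EGFR remaining after a 16 h, 37 °C exposure (8 doses, 5-fold steps from 10 uM final, 0.2% DMSO) was quantified by HTRF antibodies in cell lysate. Percent inhibition relative to DMSO control was fitted by four-parameter logistic to give DC50; Dmax denotes maximal degradation.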

EGFR (HCC827 cells) = target: T3, EGFR (HCC827 cells) (Homo sapiens, UniProt P00533, DEL746-750); assay: EGFR degradation HTRF assay, HCC827 cells; settings: HCC827, 16h treatment; for Dmax: maximum percentage of degradation
T3 construct: endogenous in cells; host or cells: HCC827
Method in brief: as §1

[6] = target: T4, EGFR L858R/T790M (H1975-clone #36, homozygous) (Homo sapiens, UniProt P00533, L858R/T790M); assay: EGFR degradation HTRF assay, H1975-clone #36 cells; settings: H1975 #36, 16h treatment; for Dmax: NCI-H1975, maximum percentage of degradation
T4 construct: designed to specifically target WT EGFR but preserve the L858R/T790M copy; host or cells: H1975-clone #36
Method in brief: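 Eight-point, 5-fold series starting at 10 uM (0.2% DMSO) applied for 16 h, 37 °C, to a WT-EGFR-knockout H1975 clone carrying only L858R/T790M. Lysates read by HTRF overnight. Degradation percentage relative to DMSO control fitted for DC50, with Dmax as maximum degradation.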

T1 sequence (P00533 25-1210 C797S/L858R): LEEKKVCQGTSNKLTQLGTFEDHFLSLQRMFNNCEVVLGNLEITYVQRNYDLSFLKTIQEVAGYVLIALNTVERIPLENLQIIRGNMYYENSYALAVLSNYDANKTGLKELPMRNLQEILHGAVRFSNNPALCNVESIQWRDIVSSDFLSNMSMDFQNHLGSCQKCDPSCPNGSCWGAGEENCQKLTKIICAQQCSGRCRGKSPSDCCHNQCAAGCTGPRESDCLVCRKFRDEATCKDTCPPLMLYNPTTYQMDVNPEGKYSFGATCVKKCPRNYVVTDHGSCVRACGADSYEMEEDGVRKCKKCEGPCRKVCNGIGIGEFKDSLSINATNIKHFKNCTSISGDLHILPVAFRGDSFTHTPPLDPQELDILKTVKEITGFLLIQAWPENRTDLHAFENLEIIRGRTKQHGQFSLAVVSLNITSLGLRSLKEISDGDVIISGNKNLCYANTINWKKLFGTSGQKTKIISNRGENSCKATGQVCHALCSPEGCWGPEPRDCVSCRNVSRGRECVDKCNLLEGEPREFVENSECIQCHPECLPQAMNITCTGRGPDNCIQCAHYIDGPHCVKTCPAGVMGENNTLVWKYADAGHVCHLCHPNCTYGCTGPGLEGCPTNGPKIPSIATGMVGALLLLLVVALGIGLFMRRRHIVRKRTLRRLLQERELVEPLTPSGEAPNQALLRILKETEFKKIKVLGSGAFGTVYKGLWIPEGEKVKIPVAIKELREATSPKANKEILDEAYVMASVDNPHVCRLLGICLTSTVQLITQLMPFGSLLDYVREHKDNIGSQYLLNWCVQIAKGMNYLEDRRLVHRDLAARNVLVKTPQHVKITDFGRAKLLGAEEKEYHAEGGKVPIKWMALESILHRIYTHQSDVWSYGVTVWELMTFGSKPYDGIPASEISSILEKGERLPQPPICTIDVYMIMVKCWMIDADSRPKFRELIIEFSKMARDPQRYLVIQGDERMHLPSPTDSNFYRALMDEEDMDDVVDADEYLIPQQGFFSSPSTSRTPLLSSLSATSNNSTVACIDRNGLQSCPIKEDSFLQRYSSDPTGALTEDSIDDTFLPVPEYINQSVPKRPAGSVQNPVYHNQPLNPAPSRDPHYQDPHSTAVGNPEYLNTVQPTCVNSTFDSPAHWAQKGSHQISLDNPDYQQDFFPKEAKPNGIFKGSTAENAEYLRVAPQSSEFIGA
T4 sequence (P00533 25-1210 T790M/L858R): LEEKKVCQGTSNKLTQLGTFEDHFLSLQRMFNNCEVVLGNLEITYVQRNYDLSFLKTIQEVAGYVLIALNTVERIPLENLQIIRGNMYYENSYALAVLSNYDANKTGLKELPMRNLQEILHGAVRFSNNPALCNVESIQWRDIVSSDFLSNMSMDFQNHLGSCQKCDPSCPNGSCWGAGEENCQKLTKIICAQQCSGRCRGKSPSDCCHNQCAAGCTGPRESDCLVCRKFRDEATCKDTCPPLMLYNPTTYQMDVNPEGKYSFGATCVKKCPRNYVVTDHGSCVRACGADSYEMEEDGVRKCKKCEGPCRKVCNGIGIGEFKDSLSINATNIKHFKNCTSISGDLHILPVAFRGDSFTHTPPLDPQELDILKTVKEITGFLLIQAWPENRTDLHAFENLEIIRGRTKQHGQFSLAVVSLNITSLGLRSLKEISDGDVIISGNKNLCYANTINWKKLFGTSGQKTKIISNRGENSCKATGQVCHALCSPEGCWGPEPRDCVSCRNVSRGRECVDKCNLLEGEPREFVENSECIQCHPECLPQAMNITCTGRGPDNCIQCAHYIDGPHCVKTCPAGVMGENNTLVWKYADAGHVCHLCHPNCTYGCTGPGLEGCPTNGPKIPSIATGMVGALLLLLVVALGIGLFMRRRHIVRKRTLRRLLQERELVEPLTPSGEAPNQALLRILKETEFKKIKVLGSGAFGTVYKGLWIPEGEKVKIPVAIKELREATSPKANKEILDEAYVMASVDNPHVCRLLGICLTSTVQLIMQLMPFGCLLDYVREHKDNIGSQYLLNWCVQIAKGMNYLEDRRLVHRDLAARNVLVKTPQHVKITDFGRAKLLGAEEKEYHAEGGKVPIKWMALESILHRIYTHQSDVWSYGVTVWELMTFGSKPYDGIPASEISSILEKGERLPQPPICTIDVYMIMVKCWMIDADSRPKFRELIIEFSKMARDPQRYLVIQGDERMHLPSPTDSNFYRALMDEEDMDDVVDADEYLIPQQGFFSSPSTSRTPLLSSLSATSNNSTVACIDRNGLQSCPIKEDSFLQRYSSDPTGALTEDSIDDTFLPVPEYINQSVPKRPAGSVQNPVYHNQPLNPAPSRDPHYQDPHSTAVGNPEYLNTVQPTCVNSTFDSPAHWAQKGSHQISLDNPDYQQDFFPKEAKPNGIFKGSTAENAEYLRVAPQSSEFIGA
T2 sequence (P00533 25-1210 T790M/C797S/L858R): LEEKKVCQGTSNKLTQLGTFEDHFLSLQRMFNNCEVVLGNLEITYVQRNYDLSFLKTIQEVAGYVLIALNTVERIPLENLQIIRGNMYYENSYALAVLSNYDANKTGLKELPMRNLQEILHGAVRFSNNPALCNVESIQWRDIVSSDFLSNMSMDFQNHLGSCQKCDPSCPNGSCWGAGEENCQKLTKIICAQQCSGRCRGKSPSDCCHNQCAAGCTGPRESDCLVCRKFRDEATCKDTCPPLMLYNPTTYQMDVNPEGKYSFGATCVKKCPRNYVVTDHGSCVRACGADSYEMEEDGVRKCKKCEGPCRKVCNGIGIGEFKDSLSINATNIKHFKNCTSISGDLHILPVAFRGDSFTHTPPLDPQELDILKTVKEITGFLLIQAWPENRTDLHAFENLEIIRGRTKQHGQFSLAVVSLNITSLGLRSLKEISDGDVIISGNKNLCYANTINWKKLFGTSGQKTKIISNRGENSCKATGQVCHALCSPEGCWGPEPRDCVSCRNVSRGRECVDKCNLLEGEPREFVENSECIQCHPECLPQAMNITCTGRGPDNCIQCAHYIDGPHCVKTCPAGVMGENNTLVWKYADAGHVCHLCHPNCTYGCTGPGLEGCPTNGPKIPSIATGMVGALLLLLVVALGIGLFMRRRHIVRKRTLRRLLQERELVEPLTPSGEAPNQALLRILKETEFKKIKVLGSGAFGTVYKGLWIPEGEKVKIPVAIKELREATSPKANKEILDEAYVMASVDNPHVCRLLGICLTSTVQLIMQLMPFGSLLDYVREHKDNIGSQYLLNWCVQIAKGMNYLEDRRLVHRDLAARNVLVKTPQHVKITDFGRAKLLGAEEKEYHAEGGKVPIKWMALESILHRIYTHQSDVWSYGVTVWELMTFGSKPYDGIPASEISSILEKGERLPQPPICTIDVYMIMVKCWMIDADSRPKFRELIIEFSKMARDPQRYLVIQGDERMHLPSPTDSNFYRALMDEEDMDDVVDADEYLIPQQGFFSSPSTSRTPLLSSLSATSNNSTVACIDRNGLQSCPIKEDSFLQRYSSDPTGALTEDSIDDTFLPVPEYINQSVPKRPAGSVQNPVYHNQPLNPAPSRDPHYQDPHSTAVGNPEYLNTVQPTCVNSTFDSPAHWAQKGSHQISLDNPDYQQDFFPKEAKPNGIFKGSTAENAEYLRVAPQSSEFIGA
T3 sequence (P00533 with tags, fused parts or gaps DEL746-750): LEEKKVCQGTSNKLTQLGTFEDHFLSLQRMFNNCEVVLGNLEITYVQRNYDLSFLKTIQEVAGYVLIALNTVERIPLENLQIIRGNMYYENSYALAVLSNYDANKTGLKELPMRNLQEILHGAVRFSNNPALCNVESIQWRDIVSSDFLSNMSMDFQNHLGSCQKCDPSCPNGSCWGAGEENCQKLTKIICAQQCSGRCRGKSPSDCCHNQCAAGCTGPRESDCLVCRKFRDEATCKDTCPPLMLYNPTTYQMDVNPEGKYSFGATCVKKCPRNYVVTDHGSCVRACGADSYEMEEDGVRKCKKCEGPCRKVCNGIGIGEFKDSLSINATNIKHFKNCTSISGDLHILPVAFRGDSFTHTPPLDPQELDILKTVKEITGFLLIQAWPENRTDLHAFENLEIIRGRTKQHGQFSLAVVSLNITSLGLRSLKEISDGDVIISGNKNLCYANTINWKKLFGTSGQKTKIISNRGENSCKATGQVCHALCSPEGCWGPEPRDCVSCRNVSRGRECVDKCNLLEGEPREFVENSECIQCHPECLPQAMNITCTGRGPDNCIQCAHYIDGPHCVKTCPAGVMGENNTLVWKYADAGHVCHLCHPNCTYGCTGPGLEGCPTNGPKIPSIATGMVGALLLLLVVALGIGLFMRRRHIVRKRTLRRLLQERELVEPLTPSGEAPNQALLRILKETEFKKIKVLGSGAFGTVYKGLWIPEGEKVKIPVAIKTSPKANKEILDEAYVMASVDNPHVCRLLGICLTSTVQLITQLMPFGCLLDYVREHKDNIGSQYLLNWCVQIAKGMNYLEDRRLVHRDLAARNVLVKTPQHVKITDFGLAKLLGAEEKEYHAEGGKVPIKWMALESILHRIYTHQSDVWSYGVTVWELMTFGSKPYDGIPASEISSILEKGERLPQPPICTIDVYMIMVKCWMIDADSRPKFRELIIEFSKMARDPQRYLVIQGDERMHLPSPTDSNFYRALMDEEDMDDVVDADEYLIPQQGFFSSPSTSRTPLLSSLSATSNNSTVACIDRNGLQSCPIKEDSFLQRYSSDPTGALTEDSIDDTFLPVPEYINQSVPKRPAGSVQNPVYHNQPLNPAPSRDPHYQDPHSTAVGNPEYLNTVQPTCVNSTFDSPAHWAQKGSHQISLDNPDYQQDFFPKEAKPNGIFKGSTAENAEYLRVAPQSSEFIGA

Row | Structure (SMILES) | DC50 [1] [nM] | DC50 [2] [nM] | DC50 ([3]; EGFR degradation, IC50 (DC50) from curve fit, read-out: DC50(nM) H1975 # 28 DTC) [nM] | Dmax ([2]; maximum percentage of degradation, read-out: BaF3 LC Dmax (%)) [%] | DC50 [4] [nM] | Dmax [5] [%] | DC50 [5] [nM] | DC50 (EGFR (HCC827 cells)) [nM] | Dmax (EGFR (HCC827 cells)) [%] | DC50 [6] [nM] | Dmax [6] [%] | H1975 #23 DC Dmax (%) [1] [%] | Dmax (%) H1975 # 28 DTC ([3]; maximum percentage of inhibition (degradation)) [%] | DTC Dmax (%) [4] [%]
1 | CCc1cc(Nc2ncc(Br)c(Nc3ccc4nccnc4c3P(C)(C)=O)n2)c(OC)cc1N1CCC(N2CCN(CCc3ccc(C4CCC(=O)NC4=O)c(F)c3F)CC2)CC1 (stereo not drawn) [Example 10, 3-(4-(2-(4-(1-(4-((5-bromo-4-((5-(dimethylphosphoryl)quinoxalin-6-yl)amino)pyrimidin-2-yl)amino)-2-ethyl-5-methoxyphenyl)piperidin-4-yl)piperazin-1-yl)ethyl)-2,3-difluorophenyl)piperidine-2,6-dione] |  |  |  |  | 15.4 | 88.7 | 83.3 | 12.3 | 83.3 | 15.9 | 82.6 |  |  | 85.51
2 | CCc1cc(Nc2ncc(Br)c(Nc3ccc4nccnc4c3P(C)(C)=O)n2)c(OC)cc1N1CCC(N2CCN(C[C@H]3CCN(c4ccc(C5CCC(=O)NC5=O)cc4)C3)CC2)CC1 (stereo partly drawn) [Example 220, 3-(4-((R)-3-((4-(1-(4-((5-bromo-4-((5-(dimethylphosphoryl)quinoxalin-6-yl)amino)pyrimidin-2-yl)amino)-2-ethyl-5-methoxyphenyl)piperidin-4-yl)piperazin-1-yl)methyl)pyrrolidin-1-yl)phenyl)piperidine-2,6-dione] |  |  |  |  | 18.2 | 88.8 | 43.2 | 5.1 | 77.7 | 8.8 | 85.6 |  |  | 86
3 | CCc1cc(Nc2ncc(Br)c(Nc3ccc4nccnc4c3P(C)(C)=O)n2)c(OC)cc1N1CCC(N2CCN(CC3CN(c4ccc5c(c4)CN(C4CCC(=O)NC4=O)C5=O)C3)CC2)CC1 (stereo not drawn) [Example 160, 3-(5-(3-((4-(1-(4-((5-bromo-4-((5-(dimethylphosphoryl)quinoxalin-6-yl)amino)pyrimidin-2-yl)amino)-2-ethyl-5-methoxyphenyl)piperidin-4-yl)piperazin-1-yl)methyl)azetidin-1-yl)-1-oxoisoindolin-2-yl)piperidine-2,6-dione] |  |  |  |  | 6.95 | 92.9 | 18.1 | 2.69 | 81.7 | 3.07 | 76.8 |  |  | 94.14

More lines, main results first:

Row | DC50 [1] [nM] | DC50 [2] [nM] | DC50 ([3]; EGFR degradation, IC50 (DC50) from curve fit, read-out: DC50(nM) H1975 # 28 DTC) [nM] | Dmax ([2]; maximum percentage of degradation, read-out: BaF3 LC Dmax (%)) [%] | DC50 [4] [nM] | Dmax [5] [%] | DC50 [5] [nM] | DC50 (EGFR (HCC827 cells)) [nM] | Dmax (EGFR (HCC827 cells)) [%] | DC50 [6] [nM] | Dmax [6] [%] | Structure (SMILES) | H1975 #23 DC Dmax (%) [1] [%] | Dmax (%) H1975 # 28 DTC ([3]; maximum percentage of inhibition (degradation)) [%] | DTC Dmax (%) [4] [%]
4 | 3.54 | 11.9 | 0.781 |  |  |  |  |  |  |  |  | CCc1ccc2c(P(C)(C)=O)c(Nc3nc(Nc4cc(CC)c(N5CCC(N6CCN(CCc7cc(F)c([C@H]8CCC(=O)NC8=O)c(F)c7)CC6)CC5)cc4OC)ncc3Br)ccc2n1 [Example 484, (R)-3-(4-(2-(4-(1-(4-((5-bromo-4-((5-(dimethylphosphoryl)-2-ethylquinolin-6-yl)amino)pyrimidin-2-yl)amino)-2-ethyl-5-methoxyphenyl)piperidin-4-yl)piperazin-1-yl)ethyl)-2,6-difluorophenyl)piperidine-2,6-dione] | 82.99 | 89.6 | 
5 | 1.11 | 1.83 |  | 94.8 |  |  |  |  |  |  |  | CCc1ccc2c(P(C)(C)=O)c(Nc3nc(Nc4cc(CC)c(N5CCC(N6CCN(CCc7cccc8c7n(C)c(=O)n8C7CCC(=O)NC7=O)CC6)CC5)cc4OC)ncc3Br)ccc2n1 (stereo not drawn) [Example 516, 3-(4-(2-(4-(1-(4-((5-bromo-4-((5-(dimethylphosphoryl)-2-ethylquinolin-6-yl)amino)pyrimidin-2-yl)amino)-2-ethyl-5-methoxyphenyl)piperidin-4-yl)piperazin-1-yl)ethyl)-3-methyl-2-oxo-2,3-dihydro-1H-benzo[d]imidazol-1-yl)piperidine-2,6-dione] | 78.66 |  | 
6 |  |  |  |  | 6.37 | 83.1 | 18.6 | 4.59 | 67 | 5.1 | 72.8 | CCc1cc(Nc2ncc(Br)c(Nc3ccc4nccnc4c3P(C)(C)=O)n2)c(OC)cc1N1CCC(N2CCN(C(=O)[C@H]3C[C@H](N(C)c4ccc(C5CCC(=O)NC5=O)cc4)C3)CC2)CC1 (stereo partly drawn) [Example 247, 3-(4-(((1r,3r)-3-(4-(1-(4-((5-bromo-4-((5-(dimethylphosphoryl)quinoxalin-6-yl)amino)pyrimidin-2-yl)amino)-2-ethyl-5-methoxyphenyl)piperidin-4-yl)piperazine-1-carbonyl)cyclobutyl)(methyl)amino)phenyl)piperidine-2,6-dione] |  |  | 86.93
7 |  |  |  |  | 4.98 | 84.7 | 15.9 | 3.14 | 77.7 | 3.61 | 75.5 | CCc1cc(Nc2ncc(Br)c(Nc3ccc4nccnc4c3P(C)(C)=O)n2)c(OC)cc1N1CCC(N2CCN(C(=O)C3CCN(c4cc(F)c(C5CCC(=O)NC5=O)c(F)c4)CC3)CC2)CC1 (stereo not drawn) [Example 254, 3-(4-(4-(4-(1-(4-((5-bromo-4-((5-(dimethylphosphoryl)quinoxalin-6-yl)amino)pyrimidin-2-yl)amino)-2-ethyl-5-methoxyphenyl)piperidin-4-yl)piperazine-1-carbonyl)piperidin-1-yl)-2,6-difluorophenyl)piperidine-2,6-dione] |  |  | 92.55
8 |  |  |  |  | 15.7 | 84.2 | 36.1 | 5.15 | 75.3 | 6.46 | 61 | CCc1cc(Nc2ncc(Br)c(Nc3ccc4nccnc4c3P(C)(C)=O)n2)c(OC)cc1N1CCC(N2CCN(C[C@@H]3CCN(c4ccc(C5CCC(=O)NC5=O)cc4)C3)CC2)CC1 (stereo partly drawn) [Example 221, 3-(4-((S)-3-((4-(1-(4-((5-bromo-4-((5-(dimethylphosphoryl)quinoxalin-6-yl)amino)pyrimidin-2-yl)amino)-2-ethyl-5-methoxyphenyl)piperidin-4-yl)piperazin-1-yl)methyl)pyrrolidin-1-yl)phenyl)piperidine-2,6-dione] |  |  | 87.37

— US20230265116A1, “DEGRADATION OF (EGFR) BY CONJUGATION OF EGFR INHIBITORS WITH E3 LIGASE LIGAND AND METHODS OF USE” (BEIGENE, LTD., priority 2020, published 2023)
